Data taken from ChEMBL document CHEMBL4622891, “Design, synthesis, and pharmacological evaluation of 2-(4-sulfonylphenyl)-2-[(E)-pyrrolidin-1-ylimino]-N-thiazoleacetamides as glucokinase activators” (Bioorg Med Chem Lett, 2020).

Biological target: Voltage-gated inwardly rectifying potassium channel KCNH2 (Homo sapiens, UniProt Q12809)
Assay: Inhibition of human ERG

Sequence of Voltage-gated inwardly rectifying potassium channel KCNH2 (Q12809 whole entry): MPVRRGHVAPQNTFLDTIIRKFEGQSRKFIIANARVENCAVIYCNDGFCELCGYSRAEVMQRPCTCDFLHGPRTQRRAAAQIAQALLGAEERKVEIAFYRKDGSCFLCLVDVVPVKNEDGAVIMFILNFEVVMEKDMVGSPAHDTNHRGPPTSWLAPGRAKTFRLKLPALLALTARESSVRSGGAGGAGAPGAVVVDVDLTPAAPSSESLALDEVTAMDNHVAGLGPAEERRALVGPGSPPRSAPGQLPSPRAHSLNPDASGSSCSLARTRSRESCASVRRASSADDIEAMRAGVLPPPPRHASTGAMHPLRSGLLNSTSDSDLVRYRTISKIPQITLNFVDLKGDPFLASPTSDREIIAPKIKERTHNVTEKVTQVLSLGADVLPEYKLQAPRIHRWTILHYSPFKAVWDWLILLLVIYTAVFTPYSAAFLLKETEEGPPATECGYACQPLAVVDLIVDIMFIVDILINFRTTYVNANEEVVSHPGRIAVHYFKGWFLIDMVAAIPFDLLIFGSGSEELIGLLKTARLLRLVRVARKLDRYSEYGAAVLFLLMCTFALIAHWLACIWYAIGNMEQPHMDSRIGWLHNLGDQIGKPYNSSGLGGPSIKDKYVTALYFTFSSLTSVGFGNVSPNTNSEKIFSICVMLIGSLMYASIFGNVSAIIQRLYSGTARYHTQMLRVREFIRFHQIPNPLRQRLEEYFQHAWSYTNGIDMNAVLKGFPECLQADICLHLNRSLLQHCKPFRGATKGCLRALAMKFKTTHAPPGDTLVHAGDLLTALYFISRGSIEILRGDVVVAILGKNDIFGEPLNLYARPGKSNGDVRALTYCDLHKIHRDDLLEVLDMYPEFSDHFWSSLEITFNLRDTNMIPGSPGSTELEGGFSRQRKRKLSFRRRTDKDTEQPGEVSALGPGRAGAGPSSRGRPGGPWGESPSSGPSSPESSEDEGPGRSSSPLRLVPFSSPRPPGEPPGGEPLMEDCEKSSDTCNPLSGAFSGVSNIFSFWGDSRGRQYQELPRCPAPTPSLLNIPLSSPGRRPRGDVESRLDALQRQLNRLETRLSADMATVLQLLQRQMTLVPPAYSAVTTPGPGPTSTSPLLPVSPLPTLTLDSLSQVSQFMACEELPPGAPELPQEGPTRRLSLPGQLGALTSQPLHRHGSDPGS

SMILES: O=C(Nc1nccs1)/C(=N/N1CCCC1)c1ccc(S(=O)(=O)C2CC2)cc1
- IC50: 17.5 µM

SMILES: Cc1cnc(NC(=O)/C(=N/N2CCCC2)c2ccc(S(=O)(=O)C3CC3)cc2)s1
- IC50: > 100 µM

SMILES: Cc1nnc(NC(=O)/C(=N/N2CCCC2)c2ccc(S(=O)(=O)C3CC3)cc2)s1
- IC50: > 100 µM

SMILES: CC(=O)N1CCN(Cc2cnc(NC(=O)/C(=N/N3CCCC3)c3ccc(S(=O)(=O)C4CC4)cc3)s2)CC1
- IC50: > 100 µM

SMILES: O=C(Nc1ncc(Cl)s1)/C(=N/N1CCCC1)c1ccc(S(=O)(=O)C2CC2)cc1
- IC50: 16.7 µM
